# Test results: patent US20020137929A1, “1 - (3-heterocyclylphenyl) isothiourea, -isourea, -guanidine and -amidine herbicidal agents” (Intellectual Property Department, BASF Aktiengesellschaft, priority 1998, published 2002)
# How the values were obtained:
# [1] = test system: AMBEL (Ragweed, Common); experiment: Postemergence herbicidal evaluation; assay type: in vivo, Ambrosia artemisifolia; conditions: postemergence
# Method in brief: (§1)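 Two-week-old seedlings sprayed with compound in 50/50 acetone/water plus 0.5% TWEEN 20, at about 0.0156 to 0.500 kg/ha, nozzle at 40 psi. Kept in greenhouse; rated visually 4-5 weeks after treatment on a 0-9 scale versus control, repeat tests averaged.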
# [2] = test system: SETVI (Foxtail, Green); experiment: Preemergence herbicidal evaluation; assay type: in vivo, Setaria viridis; conditions: rated 4-5 weeks after treatment
# Method in brief: (§2)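 Seeds were mixed with potting soil and planted on about one inch of soil, then sprayed with test compound in aqueous acetone at about 0.0156 to 0.500 kg per hectare. Plants grew under standard greenhouse care and were visually rated 0-9 against untreated controls 4-5 weeks post-treatment.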
# [3] = test system: TRZAWR (Wheat, Winter, cv Riband); experiment: Preemergence herbicidal evaluation; assay type: in vivo, Triticum aestivum; conditions: rated 4-5 weeks after treatment
# Method in brief: as §2
# [4] = test system: SAGPY (Arrowhead (Pygmaea)); experiment: Preemergence weed control under flooded paddy conditions; assay type: in vivo, Sagittaria pygmaea; conditions: rated 3-4 weeks after treatment
# Method in brief: (§3)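 Seeds or propagules sown in silt loam kept flooded 1.5-3 cm; compounds in 50/50 acetone/water pipetted into flood water at about 0.0313 to 0.500 kg/ha. Greenhouse; visual 0-9 rating versus untreated control 3-4 weeks after treatment.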
# [5] = test system: CASOB (Sicklepod); experiment: Preemergence herbicidal evaluation; assay type: in vivo, Cassia obtusifolia; conditions: rated 4-5 weeks after treatment
# Method in brief: as §2
# [6] = test system: ORYSAT (Rice, Tebonnet); experiment: Preemergence herbicidal evaluation; assay type: in vivo, Oryza sativa, (L.) Tebonnet; conditions: rated 4-5 weeks after treatment
# Method in brief: as §2
# [7] = test system: CHEAL (Lambsquarters, Common); experiment: Preemergence herbicidal evaluation; assay type: in vivo, Chenopodium album; conditions: rated 4-5 weeks after treatment
# Method in brief: as §2
# [8] = test system: GLXMAW (Soybean, Williams); experiment: Preemergence herbicidal evaluation; assay type: in vivo, Glycine max, (L.) Merr. cv Williams; conditions: rated 4-5 weeks after treatment
# Method in brief: as §2
# [9] = test system: ABUTH (Velvetleaf); experiment: Postemergence herbicidal evaluation; assay type: in vivo, Abutilon theophrasti; conditions: postemergence
# Method in brief: as §1
# [10] = test system: GALAP (Galium); experiment: Preemergence herbicidal evaluation; assay type: in vivo, Galium aparine; conditions: rated 4-5 weeks after treatment
# Method in brief: as §2
# [11] = test system: AMBEL (Ragweed, Common); experiment: Preemergence herbicidal evaluation; assay type: in vivo, Ambrosia artemisifolia; conditions: rated 4-5 weeks after treatment
# Method in brief: as §2
# [12] = test system: ECHORC (Watergrass (Calif.)); experiment: Preemergence weed control under flooded paddy conditions; assay type: in vivo, Echinochloa oryzoides; conditions: rated 3-4 weeks after treatment
# Method in brief: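 Silt loam, seeds in top 0.5 cm; flood held 1.5-3 cm; test cpd as acetone/water 50/50 into flood water, ~0.0313-0.500 kg/ha a.i.; greenhouse 3-4 wk; visual 0-9 score vs control.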
# [13] = test system: ZEAMX (Corn, Field); experiment: Postemergence herbicidal evaluation; assay type: in vivo, Zea mays; conditions: postemergence
# Method in brief: as §1
# [14] = test system: IPOHE (Morningglory, Ivyleaf); experiment: Preemergence herbicidal evaluation; assay type: in vivo, Ipomoea hederacea; conditions: rated 4-5 weeks after treatment
# Method in brief: as §2
# [15] = test system: CYPSE (Flatsedge); experiment: Preemergence weed control under flooded paddy conditions; assay type: in vivo, Cyperus serotinus; conditions: rated 3-4 weeks after treatment
# Method in brief: as §3
# [16] = test system: ORYSAT (Rice, Tebonnet); experiment: Postemergence herbicidal evaluation; assay type: in vivo, Oryza sativa, (L.) Tebonnet; conditions: postemergence
# Method in brief: as §1
smiles,measurement,setting,value
"CCOC(=O)CN1C(=O)C(Cc2ccccc2OC(C)C(=O)O)S/C1=N/c1cc(-n2c(=O)cc(C(F)(F)F)n(C)c2=O)c(F)cc1Cl (stereo not drawn) [Compound 114, 5-[o-(1-Carboxyethoxy)benzyl]-2-{{2-chloro-5-[3,6-dihydro-3-methyl-2,6-dioxo-4-(trifluoromethyl)-1(2H)-pyrimidinyl]-4-fluorophenyl}imino}-4-oxo-3-thiazolidineacetic acid, 3-ethyl ester]",herbicidal rating AMBEL,[1]; rate 0.0158 kg/ha,4.0
same,herbicidal rating AMBEL,[1]; rate 0.0315 kg/ha,9.0
same,herbicidal rating AMBEL,[1]; rate 0.0630 kg/ha,7.0
same,Preemergence herbicidal rating SETVI,[2]; rate 0.0156 kg/ha,0.0
same,Preemergence herbicidal rating SETVI,[2]; rate 0.0313 kg/ha,0.0
same,Preemergence herbicidal rating SETVI,[2]; rate 0.0625 kg/ha,2.0
same,Preemergence herbicidal rating SETVI,[2]; rate 0.1250 kg/ha,7.0
same,Preemergence herbicidal rating SETVI,[2]; rate 0.2500 kg/ha,9.0
same,Preemergence herbicidal rating TRZAWR,[3]; rate 0.0156 kg/ha,0.0
same,Preemergence herbicidal rating TRZAWR,[3]; rate 0.0313 kg/ha,0.0
same,Preemergence herbicidal rating TRZAWR,[3]; rate 0.0625 kg/ha,0.0
same,Preemergence herbicidal rating TRZAWR,[3]; rate 0.1250 kg/ha,1.0
same,Preemergence herbicidal rating TRZAWR,[3]; rate 0.2500 kg/ha,3.0
same,SAGPY herbicidal effect rating,[4]; 0.0313 kg/ha,3.5
same,SAGPY herbicidal effect rating,[4]; 0.0625 kg/ha,3.5
same,SAGPY herbicidal effect rating,[4]; 0.1250 kg/ha,3.5
same,SAGPY herbicidal effect rating,[4]; 0.2500 kg/ha,4.5
same,Preemergence herbicidal rating CASOB,[5]; rate 0.0156 kg/ha,0.0
same,Preemergence herbicidal rating CASOB,[5]; rate 0.0313 kg/ha,0.0
same,Preemergence herbicidal rating CASOB,[5]; rate 0.0625 kg/ha,1.0
same,Preemergence herbicidal rating CASOB,[5]; rate 0.1250 kg/ha,3.0
same,Preemergence herbicidal rating CASOB,[5]; rate 0.2500 kg/ha,9.0
same,Preemergence herbicidal rating ORYSAT,[6]; rate 0.0156 kg/ha,0.0
same,Preemergence herbicidal rating ORYSAT,[6]; rate 0.0313 kg/ha,0.0
same,Preemergence herbicidal rating ORYSAT,[6]; rate 0.0625 kg/ha,0.0
same,Preemergence herbicidal rating ORYSAT,[6]; rate 0.1250 kg/ha,2.0
same,Preemergence herbicidal rating ORYSAT,[6]; rate 0.2500 kg/ha,2.0
same,Preemergence herbicidal rating CHEAL,[7]; rate 0.0156 kg/ha,9.0
same,Preemergence herbicidal rating CHEAL,[7]; rate 0.0313 kg/ha,9.0
same,Preemergence herbicidal rating CHEAL,[7]; rate 0.0625 kg/ha,7.0
same,Preemergence herbicidal rating CHEAL,[7]; rate 0.1250 kg/ha,9.0
same,Preemergence herbicidal rating CHEAL,[7]; rate 0.2500 kg/ha,9.0
same,Preemergence herbicidal rating GLXMAW,[8]; rate 0.0156 kg/ha,0.0
same,Preemergence herbicidal rating GLXMAW,[8]; rate 0.0313 kg/ha,1.0
same,Preemergence herbicidal rating GLXMAW,[8]; rate 0.0625 kg/ha,0.0
same,Preemergence herbicidal rating GLXMAW,[8]; rate 0.1250 kg/ha,2.0
same,Preemergence herbicidal rating GLXMAW,[8]; rate 0.2500 kg/ha,3.0
same,herbicidal rating ABUTH,[9]; rate 0.0158 kg/ha,9.0
same,herbicidal rating ABUTH,[9]; rate 0.0315 kg/ha,9.0
same,herbicidal rating ABUTH,[9]; rate 0.0630 kg/ha,9.0
same,Preemergence herbicidal rating GALAP,[10]; rate 0.0156 kg/ha,0.0
same,Preemergence herbicidal rating GALAP,[10]; rate 0.0313 kg/ha,0.0
same,Preemergence herbicidal rating GALAP,[10]; rate 0.0625 kg/ha,3.0
same,Preemergence herbicidal rating GALAP,[10]; rate 0.1250 kg/ha,7.0
same,Preemergence herbicidal rating GALAP,[10]; rate 0.2500 kg/ha,9.0
same,Preemergence herbicidal rating AMBEL,[11]; rate 0.0156 kg/ha,0.0
same,Preemergence herbicidal rating AMBEL,[11]; rate 0.0313 kg/ha,0.0
same,Preemergence herbicidal rating AMBEL,[11]; rate 0.0625 kg/ha,0.0
same,Preemergence herbicidal rating AMBEL,[11]; rate 0.1250 kg/ha,5.0
same,Preemergence herbicidal rating AMBEL,[11]; rate 0.2500 kg/ha,7.0
same,ECHORC herbicidal effect rating,[12]; 0.0313 kg/ha,6.0
same,ECHORC herbicidal effect rating,[12]; 0.0625 kg/ha,7.0
same,ECHORC herbicidal effect rating,[12]; 0.1250 kg/ha,7.0
same,ECHORC herbicidal effect rating,[12]; 0.2500 kg/ha,8.0
same,herbicidal rating ZEAMX,[13]; rate 0.0158 kg/ha,6.5
same,herbicidal rating ZEAMX,[13]; rate 0.0315 kg/ha,7.0
same,herbicidal rating ZEAMX,[13]; rate 0.0630 kg/ha,7.0
same,Preemergence herbicidal rating IPOHE,[14]; rate 0.0156 kg/ha,0.0
same,Preemergence herbicidal rating IPOHE,[14]; rate 0.0313 kg/ha,0.0
same,Preemergence herbicidal rating IPOHE,[14]; rate 0.0625 kg/ha,0.0
same,Preemergence herbicidal rating IPOHE,[14]; rate 0.1250 kg/ha,9.0
same,Preemergence herbicidal rating IPOHE,[14]; rate 0.2500 kg/ha,7.0
same,CYPSE herbicidal effect rating,[15]; 0.0313 kg/ha,3.5
same,CYPSE herbicidal effect rating,[15]; 0.0625 kg/ha,4.5
same,CYPSE herbicidal effect rating,[15]; 0.1250 kg/ha,3.5
same,CYPSE herbicidal effect rating,[15]; 0.2500 kg/ha,4.5
same,herbicidal rating ORYSAT,[16]; rate 0.0158 kg/ha,1.5
same,herbicidal rating ORYSAT,[16]; rate 0.0315 kg/ha,2.0
same,herbicidal rating ORYSAT,[16]; rate 0.0630 kg/ha,3.0
